By IC50 is commonly meant the concentration that gives 50% inhibition.

Active and inactive are the calls of the source. No rule for the calls is given here.

This experiment deals with Ubiquitin carboxyl-terminal hydrolase isozyme L1 (Homo sapiens) (UniProt P09936). As to the kind of experiment: biochemical concentration-response of UCH-L1 DUB inhibitors, hit verification (AID 1645867). The following applies: recombinant UCHL1 deubiquitinase activity assay.
Chain of Ubiquitin carboxyl-terminal hydrolase isozyme L1 (Homo sapiens) (P09936 whole entry, looked up): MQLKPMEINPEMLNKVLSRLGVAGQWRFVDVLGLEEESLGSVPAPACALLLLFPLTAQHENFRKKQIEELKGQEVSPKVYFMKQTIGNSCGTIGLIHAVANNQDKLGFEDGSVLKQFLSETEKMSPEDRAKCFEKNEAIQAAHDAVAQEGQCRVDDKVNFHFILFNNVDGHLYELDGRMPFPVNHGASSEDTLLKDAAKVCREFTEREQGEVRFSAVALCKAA
With `Nc1c(-c2nc(-c3ccccc3Cl)no2)nnn1-c1ccc(Cl)cc1`, the IC50 was > 25 µM (inactive).

Take `COC(=O)C1(Cc2ccc(O)cc2)OC(=O)C(O)=C1c1ccc(O)cc1` (stereo unspecified): the 50% inhibitory concentration (IC50) is 18.9 µM.

For `O=c1[nH]cccc1NS(=O)(=O)c1ccc(F)cc1`, the IC50 was > 25 µM (inactive).

In the case of `Cc1ccc(-n2cc(-c3noc(C(=O)Nc4ccc(F)cc4C)n3)nn2)cc1`, the IC50 was > 25 µM (inactive).

As for `COc1ccc(CCn2c(-c3ccccc3)nc3c(c(=O)c4ccccc4n3C)c2=O)cc1OC`, the IC50 is > 25 µM (inactive).

Turning to `COc1ccc(NC(=O)Cn2c(C)cc(=O)n3nc(-c4cccc(C)c4)nc23)cc1`, the IC50 is > 25 µM (inactive).

On to `O=c1[nH]c(=O)n(Cc2ccccc2)c2c1CN(CCc1ccccc1)CN2`, for which the IC50 is > 25 µM (inactive).

Turning to `Cc1ccc(-n2c(=O)[nH]c3c(C(N)=O)nc(-c4ccc(OCc5ccccc5)cc4)nc32)cc1`, the IC50 is > 25 µM (inactive).

Consider `COc1ccc(NC(=O)C2C3C=CC4(O3)C2C(=O)N(CCc2ccccc2)C4C(=O)NC2CCCCC2)cc1` (stereo unspecified), for which the IC50 was > 25 µM (inactive).

For the compound `CCc1cccc(CC)c1NC(=O)COC(=O)c1cc2cccc(OC)c2oc1=O`, the IC50 is > 25 µM (inactive).

For the compound `O=C(NC1(O)C(=O)c2ccccc2C1=O)c1cccc2c1-c1ccccc1C2=O`, the IC50 is 15.6 µM.

`CCc1ccc(-n2c(C)cc(/C=C3\C(=N)N4N=CSC4=NC3=O)c2C)cc1`: the IC50 is > 25 µM (inactive).

With `O=C(Nc1cccc(F)c1)N1C[C@@H]2c3nccn3-c3ccccc3[C@@H]2C1`, the IC50 was > 25 µM (inactive).

For the compound `CC(NC(=O)c1ccccc1)c1nc2ccccc2n1CC(=O)Nc1ccc2c(c1)OCO2` (stereo unspecified), the IC50 was > 25 µM (inactive).

For the compound `Cc1ccc(NC(=O)Nc2ccc(C)n(CC(=O)Nc3ccc(C)cc3C)c2=O)cc1`, the IC50 was > 25 µM (inactive).

Take `Cc1nnc(-c2ccc3ccn(CC(=O)N4CCN(c5ccccc5)CC4)c3c2)o1`: the IC50 is > 25 µM (inactive).

For `O=C(Nc1ccc(C(F)(F)F)cc1)C1CC(=O)N(c2ccc3c(c2)OCCO3)C1` (stereo unspecified), the IC50 is > 25 µM (inactive).

As to `COc1ccc(NC(=O)Cn2c(=O)n(CCC(=O)NCc3ccccc3)c(=O)c3sccc32)cc1Cl`, the IC50 was > 25 µM (inactive).

On to `Cc1ccc(-n2cc(C(=O)NCCCc3ccccc3)nn2)cc1`, for which the IC50 is > 25 µM (inactive).

As to `CC(C)(C)n1ncc2c(=O)n(CC(=O)N3CCCc4ccccc43)cnc21`, the IC50 is > 25 µM (inactive).

For the compound `CCc1ccc(NC(=O)Cn2c(=O)n(Cc3ccccc3)c(=O)c3nn(CC)cc32)cc1`, the IC50 is > 25 µM (inactive).

Turning to `CCOc1ccc2c(c1)c(=O)c(C(=O)c1ccc(C)cc1)cn2CC(=O)Nc1ccc(C)cc1`, the IC50 was > 25 µM (inactive).

With `O=C(CCCCn1c(=O)[nH]c2ccccc2c1=O)Nc1cccc(Cl)c1`, the IC50 is > 25 µM (inactive).

Turning to `COc1cc(O)c2c(O)c3c(cc2c1)CC(C)OC3=O` (stereo unspecified), the IC50 was > 25 µM (inactive).

As to `Cc1cc(Nc2ncc(Cl)cc2Cl)n(-c2ccccc2)n1`, the IC50 was > 25 µM (inactive).

Consider `c1ccc(-c2ccc(NCc3ccc4c(c3)OCO4)nn2)cc1`, for which the IC50 was > 25 µM (inactive).

For the compound `CCOc1ccc(-c2ccc3nnc(SCC(=O)Nc4ccc(F)cc4)n3n2)cc1`, the IC50 was > 25 µM (inactive).

For `COc1cn(-c2ccc(F)cc2)nc1C(=O)Nc1ccc(Cl)cc1Cl`, the half-maximal inhibitory concentration (IC50) is 23.2 µM.

As to `COc1ccc(-c2cnn(-c3ccc(NC(=O)Nc4cccc(C(F)(F)F)c4)cc3)c2)cc1`, the IC50 is > 25 µM (inactive).

In the case of `CCc1ccc(NC(=O)Cc2nnc3cc(-c4nc(C)no4)ccn23)cc1`, the IC50 is > 25 µM (inactive).

As to `CCc1[nH]c(=O)cc2cc(OC)c(OC)cc12`, the half-maximal inhibitory concentration (IC50) is 23.5 µM.

For `C=C/C(C)=C/[C@@]1(C)SC(=O)C(C)=C1O`, the half-inhibitory concentration (IC50) is 5.87 µM.

For the compound `CCOc1ccc2c(c1)c(=O)c(C(=O)c1ccccc1)cn2CC(=O)Nc1ccc(OC)cc1`, the IC50 is > 25 µM (inactive).

For `C=C(CCC(C)(C)/C=C/CC/C(C)=C/COC(COP(=O)(O)O[C@@H]1OC(C(N)=O)[C@@](C)(O)[C@H](OC(N)=O)C1O[C@@H]1OC(CO[C@@H]2OC(CO)[C@H](O)[C@H](O)C2O)[C@H](O[C@@H]2OC(CO)[C@H](O[C@@H]3OC(C(=O)NC4=C(O)CCC4=O)[C@H](O)[C@H](O)C3O)[C@H](O)C2NC(C)=O)C(O)[C@@H]1NC(C)=O)C(=O)O)CC1C(=C)CCCC1(C)C` (stereo partly specified), the IC50 is > 25 µM (inactive).

`Cc1cccc(-c2nc(NC(=O)COc3ccc(F)cc3)no2)c1`: the IC50 was > 25 µM (inactive).

Consider `O=C1NC2(CCCc3ccccc32)C(=O)N1Cc1csc(-c2ccccc2)n1` (stereo unspecified), for which the IC50 is > 25 µM (inactive).

As to `O=C(NCc1ccco1)c1ccc(Cn2c(SCc3ccccc3)nc3ccncc32)cc1`, the IC50 is > 25 µM (inactive).

With `COc1ccc(CNC(=O)c2ccc3c(=O)nc4c(-c5cccc(C)c5)n[nH]n4c3c2)cc1`, the IC50 was > 25 µM (inactive).

`O=C1[C@H]2Cc3c([nH]c4ccccc34)CN2C(=O)CN1Cc1ccc(F)cc1`: the IC50 was > 25 µM (inactive).

As to `Cc1cc(C)c(NC(=O)Cn2c(=O)n(CCC(=O)NCc3ccc4c(c3)OCO4)c(=O)c3sccc32)c(C)c1`, the IC50 was > 25 µM (inactive).

Regarding `Nc1ccc(F)c(NS(=O)(=O)c2ccccc2)c1`, the IC50 was > 25 µM (inactive).

On to `CO/C1=C\C(C)=C\[C@@H](C)[C@@H](O)[C@H](C)C/C(C)=C/C=C/[C@H](OC)[C@@H]([C@@H](C)[C@@H](O)[C@H](C)[C@@]2(O)C[C@@H](OC(=O)/C=C/C(=O)NC3=C(O)CCC3=O)[C@H](C)[C@@H](C(C)C)O2)OC1=O`, for which the IC50 was > 25 µM (inactive).

As for `O=C(NCc1ccco1)c1cccc(S(=O)(=O)N2CC(c3ccccc3)CC2=O)c1` (stereo unspecified), the IC50 is > 25 µM (inactive).

`O=C(Nc1nc2ccccc2s1)C1CC(=O)N(c2ccccc2)C1` (stereo unspecified): the IC50 is > 25 µM (inactive).

Consider `O=C(CCc1nc2sc3c(c2c(=O)[nH]1)CCCCC3)Nc1ccc(F)cc1F`, for which the IC50 is > 25 µM (inactive).

In the case of `Cc1ccc(-n2nc3c(c2NC(=O)c2ccc(F)c(F)c2)CS(=O)(=O)C3)cc1`, the IC50 is > 25 µM (inactive).

As for `Cc1nc(-c2ccccn2)sc1C(=O)/C=C/c1ccccc1`, the IC50 was > 25 µM (inactive).

`O=C(CSc1cn(Cc2ccccc2Cl)c2ccccc12)N1CCOCC1`: the IC50 was > 25 µM (inactive).

With `Cc1nc(S(=O)(=O)NC[C@@]23CCC[C@H]2N(C)C(=O)CC3)cn1C`, the IC50 was > 25 µM (inactive).

`Cc1ccc(NCc2cc3c(-c4cccc(F)c4)nn(-c4ccccc4)c3[nH]c2=O)cc1C`: the IC50 is 21.6 µM.

As to `O=C(COc1ccc(N2CC(C(=O)NCc3ccc4c(c3)OCO4)CC2=O)cc1)Nc1ccc(F)cc1` (stereo unspecified), the IC50 is > 25 µM (inactive).

For the compound `Cc1ccccc1NC(=O)Nc1ccccc1OCc1cc(=O)n2cccc(C)c2n1`, the IC50 was > 25 µM (inactive).

On to `COc1cn(CC(=O)Nc2ccc(Cl)cc2)c(CSc2ccccc2)cc1=O`, for which the IC50 was > 25 µM (inactive).

In the case of `CCC(C)Nc1ncnc2c1CN(C1CCCNCC1)C(=O)CN2C` (stereo unspecified), the IC50 is > 25 µM (inactive).

As to `Cc1nc(-c2ccc(C(=O)Nc3ccc(F)cc3)cc2)cs1`, the IC50 was > 25 µM (inactive).

As to `Cc1ccc(S(=O)(=O)NCc2ccc(C(=O)NCCc3ccc(S(N)(=O)=O)cc3)cc2)cc1`, the IC50 was > 25 µM (inactive).

`CC[C@@H]1[C@@H](C)O[C@@](O)([C@@H](C)[C@H](O)[C@H](C)[C@H]2OC(=O)/C=C/C=C/[C@H](C)[C@@H]([C@@H](C)[C@@H](O)[C@H](C)[C@@]3(O)C[C@@H](O[C@H]4C[C@H](O)[C@H](O)[C@H](C)O4)[C@H](CC)[C@@H](C)O3)OC(=O)/C=C/C=C/[C@@H]2C)C[C@H]1O[C@H]1C[C@H](O)[C@H](O)[C@H](C)O1`: the IC50 is > 25 µM (inactive).

Consider `Cn1c(=O)c(N2CCOCC2)nc2c(OCc3ccccc3)nc(N)nc21`, for which the IC50 is > 25 µM (inactive).

With `O=C(OCC(=O)N1CCOCC1)c1ccccc1OCc1ccccc1Cl`, the IC50 is > 25 µM (inactive).

Turning to `Cc1ccccc1CCNCc1c(C(=O)O)n(Cc2ccc(Cl)cc2)c2ccccc12`, the IC50 was > 25 µM (inactive).

Consider `O=[N+]([O-])c1ccc(S(=O)(=O)CC2CSc3nc4ccccc4n32)cc1` (stereo unspecified), for which the IC50 was > 25 µM (inactive).

Regarding `O=C1NC[C@@H](CCC(=O)N2CCCC2)N2C[C@@H](NCc3ccccc3)C[C@@H]12`, the IC50 is > 25 µM (inactive).

On to `O=C(CS(=O)(=O)c1ccc(F)cc1)Nc1ccc(-c2nc3ccccc3s2)c(O)c1`, for which the IC50 was > 25 µM (inactive).

Consider `O=C(COc1ccccc1)Nc1ccc(-c2nc3cnccc3o2)c(O)c1`, for which the IC50 was > 25 µM (inactive).

With `CCCn1c(=O)c(-c2ccc(C(=O)NCc3ccc(OC)cc3)cc2)nc2cccnc21`, the IC50 was > 25 µM (inactive).

With `O=C(CSc1nc2cc(C(F)(F)F)ccc2s1)NCC(=O)c1ccccc1`, the IC50 is > 25 µM (inactive).

In the case of `COc1cc(OC)cc(N2C(=O)N(CC(=O)c3ccc(Br)cc3)c3ccccc3S2(=O)=O)c1`, the IC50 is > 25 µM (inactive).

Take `CC(C)CC1NC(=O)C2CCCN2C1=O` (stereo unspecified): the IC50 is 23.9 µM.

`O=C(Nc1cnc(-c2cccc(Cl)c2)nc1)C1CCC1`: the IC50 is > 25 µM (inactive).

For `COc1ccc2c(CNCCC3=CCCCC3)c(C(=O)O)n(Cc3ccc(F)cc3)c2c1`, the IC50 was > 25 µM (inactive).

With `O=C(NCC(O)c1ccc([N+](=O)[O-])cc1)c1cccc(S(=O)(=O)N2CCOCC2)c1` (stereo unspecified), the IC50 was > 25 µM (inactive).

As for `O=c1c2cnc(N3CCCCC3)nc2ccn1CCc1ccccc1`, the IC50 is > 25 µM (inactive).

`O=c1oc2ccccc2cc1-c1nc(-c2ccc(Oc3ccccc3)cc2)cs1`: the IC50 was > 25 µM (inactive).

For the compound `COc1ccc(CNC(=O)CCCc2nnc3c(=O)n(-c4cc(C)cc(C)c4)ccn23)cc1`, the IC50 was > 25 µM (inactive).

On to `O=C(C1CCCCC1)N1CCN(c2nc3c(F)cccc3s2)CC1`, for which the IC50 was > 25 µM (inactive).

`CCOc1ccc(-n2ccnc(SCC(=O)Nc3ccccc3Cl)c2=O)cc1`: the IC50 was > 25 µM (inactive).

For the origin of these results see PubChem BioAssay AID1645867 (Buhrlage Lab, Dana-Farber Cancer Institute and Novartis …, 2021).
